Results from ChEMBL document CHEMBL5154712, “Activators of the Anticipatory Unfolded Protein Response with Enhanced Selectivity for Estrogen Receptor Positive Breast Cancer” (J Med Chem, 2022).
Each block holds one compound with its values, some of them ahead of it. The source made the active and inactive calls. The calls are words filed in the database; no cut-off is given here.

Key:
MCF7 [1] = assay: Anticancer activity against human MCF7 cells assessed as cell growth inhibition incubated for 24 hrs by alamar blue assay; format: functional, cell-based; details: MCF7, 24 h
HT-29 [2] = assay: Anticancer activity against ERalpha negative human HT-29 cells assessed as cell growth inhibition incubated for 24 hrs by alamar blue assay; format: functional, cell-based; details: HT-29, 24 h
[3] = Stability of the compound in simulated gastric fluid assessed as compound remaining measured after 120 mins by LC-MS/MS; format: ADME; details: read-out: Stability
HCT-116 [4] = assay: Anticancer activity against ERalpha negative human HCT-116 cells assessed as cell growth inhibition incubated for 72 hrs by alamar blue assay; format: functional, cell-based; details: HCT-116, 72 h
MCF7 [5] = assay: Anticancer activity against ERalpha positive human MCF7 cells assessed as cell growth inhibition incubated for 72 hrs by alamar blue assay; format: functional, cell-based; details: MCF7, 72 h
HT-29 [6] = assay: Anticancer activity against ERalpha negative human HT-29 cells assessed as cell growth inhibition incubated for 72 hrs by alamar blue assay; format: functional, cell-based; details: HT-29, 72 h
MDA-MB-231 [7] = assay: Anticancer activity against ERalpha negative human MDA-MB-231 cells assessed as cell growth inhibition incubated for 72 hrs by alamar blue assay; format: functional, cell-based; details: MDA-MB-231, 72 h
HCT-116 [8] = assay: Anticancer activity against ERalpha negative human HCT-116 cells assessed as cell growth inhibition incubated for 24 hrs by alamar blue assay; format: functional, cell-based; details: HCT-116, 24 h
[9] = Selectivity ratio of IC50 for human HT-29 cells to IC50 for human MCF7 cells; format: functional
[10] = Selectivity ratio of IC50 for human MDA-MB-231 cells to IC50 for human MCF7 cells; format: functional
[11] = Selectivity ratio of IC50 for human HCT-116 cells to IC50 for human MCF7 cells; format: functional
MDA-MB-231 [12] = assay: Anticancer activity against ERalpha negative human MDA-MB-231 cells assessed as cell growth inhibition incubated for 24 hrs by alamar blue assay; format: functional, cell-based; details: MDA-MB-231, 24 h
T47D [13] = assay: Anticancer activity against human T47D cells harbouring ERalphaY537S mutant assessed as cell growth inhibition incubated for 24 hrs by alamar blue assay; format: functional, cell-based
[14] = Volume of distribution at steady state in CD-1 mouse at 20 mg/kg, iv by LC-MS/MS analysis; format: ADME, organism-based; details: mouse, in vivo, iv, 20 mg/kg
[15] = AUC in CD-1 mouse at 20 mg/kg, iv by LC-MS/MS analysis; format: ADME, organism-based; design: dose 20 mg/kg, route iv; details: mouse, in vivo
T47D [16] = assay: Anticancer activity against human T47D cells harbouring ERalphaD538G mutant assessed as cell growth inhibition incubated for 24 hrs by alamar blue assay; format: functional, cell-based
MCF7 [17] = assay: Antitumor activity against human MCF7 cells xenografted in athymic nude mouse assessed as reduction in tumor growth at 5 mg/kg, iv administered once a week for three doses administered for 14 days; format: functional, organism-based; details: time 14.0 day
[18] = Half life in CD-1 mouse at 20 mg/kg, iv by LC-MS/MS analysis; format: ADME, organism-based; details: mouse, in vivo, iv, 20 mg/kg
[19] = MRT in CD-1 mouse at 20 mg/kg, iv by LC-MS/MS analysis; format: ADME, organism-based; details: mouse, in vivo, iv, 20 mg/kg
[20] = Half life in mouse; format: ADME, organism-based; details: in vivo
MDA-MB-231 [21] = assay: Anticancer activity against ERalpha negative human MDA-MB-231 cells assessed as cell growth inhibition incubated for 168 hrs by alamar blue assay; format: functional, cell-based; details: MDA-MB-231, 168 h
MDA-MB-436 [22] = assay: Anticancer activity against ERalpha negative human MDA-MB-436 cells assessed as cell growth inhibition incubated for 24 hrs by alamar blue assay; format: functional, cell-based; details: MDA-MB-436, 24 h
MDA-MB-436 [23] = assay: Anticancer activity against ERalpha negative human MDA-MB-436 cells assessed as cell growth inhibition incubated for 72 hrs by alamar blue assay; format: functional, cell-based; details: MDA-MB-436, 72 h
T47D [24] = assay: Anticancer activity against ERalpha positive human T47D cells assessed as cell growth inhibition incubated for 24 hrs by alamar blue assay; format: functional, cell-based
[25] = Cmax in CD-1 mouse at 20 mg/kg, iv by LC-MS/MS analysis; format: ADME, organism-based; design: dose 20 mg/kg, route iv; details: mouse, in vivo
[26] = Oral bioavailability in mouse; format: ADME, organism-based; details: in vivo
MCF7 [27] = assay: Anticancer activity against human MCF7 cells assessed as reduction in cell viability incubated for 24 hrs in presence of 10% CD-FBS and 17-beta-estradiol by alamar blue assay; format: functional, cell-based
[28] = Toxicity in po dosed CD-1 mouse assessed as maximum tolerated dose administered as single dose; format: organism-based; details: in vivo
HCT-116 [29] = assay: Induction of ER stress in human HCT-116 cells assessed as increase in ATF6alpha-p90 cleavage at 0.1 to 10 uM measured after 24 to 48 hrs by Western blot analysis; format: functional, cell-based; details: dose 0.1-10 µM, time 24-48 hrs
[30] = Toxicity in athymic nude mouse xenografted with human MCF7 cells assessed as change in body weight at 5 mg/kg, iv administered once a week for three doses administered for 14 days; format: organism-based; details: in vivo, 336 h, time 14 day
HCT-116 [31] = assay: Induction of ER stress in human HCT-116 cells assessed as increase in phospho-EIF2alpha expression at 0.1 to 10 uM measured after 24 to 48 hrs by Western blot analysis; format: functional, cell-based; details: dose 0.1-10 µM, time 24-48 hrs
[32] = Toxicity in iv dosed Sprague-Dawley rat assessed as maximum tolerated dose administered as single dose; format: organism-based; details: in vivo
MCF7 [33] = assay: Anticancer activity against human MCF7 cells assessed as reduction in cell viability incubated for 24 hrs in presence of 10% CD-FBS by alamar blue assay; format: functional, cell-based

Compound: O=C1Nc2c(C(F)(F)F)cccc2C1(c1ccc(OC(F)(F)F)cc1)c1cc(F)c(O)c(F)c1 (stereo not drawn)
- IC50 (MCF7 [1]): > 1000 nM

Compound: Cc1cc(C2(c3ccc(OC(F)(F)F)cc3)C(=O)Nc3c(C(F)(F)F)cccc32)cc(C)c1O (stereo not drawn)
- IC50 (MCF7 [1]): > 1000 nM

Compound: Cc1cc(C2(c3ccc(OC(F)(F)F)cc3)C(=O)Nc3c(C(F)(F)F)cccc32)ccc1O (stereo not drawn)
- IC50 (MCF7 [1]): > 1000 nM

Compound: O=C1Nc2c(C(F)(F)F)cccc2[C@@]1(c1ccc(O)cc1)N1CC(F)(F)C1
- IC50 (MCF7 [5]): 117 nM

Compound: O=C1Nc2c(C(F)(F)F)cccc2C1(c1ccc(O)cc1)c1ccc(OC(F)(F)F)cc1 (stereo not drawn)
- IC50 (T47D [13]): 10 nM
- Vdss [14]: 10.1 L/kg
- IC50 (HT-29 [2]): 210 nM
- remaining at 2 h [3]: 93%
- AUC [15]: 10100 ng·h/mL
- IC50 (T47D [16]): 15 nM
- IC50 (HCT-116 [4]): 260 nM
- Activity (MCF7 [17]): Active
- t1/2 [18]: 0.917 h
- MRT [19]: 5.1 h
- half-life [20]: > 2 h
- IC50 (MDA-MB-231 [21]): 6000 nM
- IC50 (HT-29 [6]): 250 nM
- IC50 (MDA-MB-231 [7]): 8000 nM
- IC50 (HCT-116 [8]): 11000 nM
- IC50 (MDA-MB-436 [22]): 22000 nM
- IC50 (MDA-MB-436 [23]): 14000 nM
- IC50 (T47D [24]): 20 nM
- Cmax [25]: 7700 ng/mL
- bioavailability [26]: 47%
- Activity (MCF7 [27]): Active
- MTD [28]: > 150 mg/kg
- IC50 (MCF7 [1]): 20 nM
- Activity (HCT-116 [29]): Active
- Activity [30]: Non-Toxic
- Activity (HCT-116 [31]): Active
- MTD [32]: 10 mg/kg
- Activity (MCF7 [33]): Active
- IC50 (MDA-MB-231 [12]): 23000 nM

Compound: O=C1Nc2c(C(F)(F)F)cccc2C1(c1ccc(O)cc1)N1CCC(O)CC1 (stereo not drawn)
- IC50 (MCF7 [1]): > 1000 nM

Compound: O=C1Nc2c(C(F)(F)F)cccc2[C@@]1(c1ccc(O)cc1)N1CCC(F)CC1
- IC50 (MCF7 [5]): 147 nM
- IC50 (MCF7 [1]): > 1000 nM

Now from value to compound, other results behind:

- IC50 (MCF7 [1]): > 1000 nM
Compound: CC(C)c1cc(C2(c3ccc(OC(F)(F)F)cc3)C(=O)Nc3c(C(F)(F)F)cccc32)cc(C(C)C)c1O (stereo not drawn)

- IC50 (MCF7 [1]): > 1000 nM
Compound: O=C1Nc2c(C(F)(F)F)cccc2C1(c1ccc(O)cc1)N1CCCCCC1 (stereo not drawn)

- IC50 (MCF7 [1]): > 1000 nM
Compound: O=C1Nc2c(C(F)(F)F)cccc2C1(c1ccc(OC(F)(F)F)cc1)c1ccc(OC(F)(F)F)cc1

- IC50 (MCF7 [1]): > 1000 nM
Compound: O=C1Nc2c(C(F)(F)F)cccc2C1(c1ccc(O)cc1)N1CCOCC1 (stereo not drawn)

- IC50 (HT-29 [2]): 29000 nM
- remaining at 2 h [3]: 0%
- IC50 (HCT-116 [4]): 21000 nM
- IC50 (MCF7 [5]): 33 nM
- IC50 (HT-29 [6]): 25000 nM
- IC50 (MDA-MB-231 [7]): 22000 nM
- IC50 (HCT-116 [8]): 38000 nM
- IC50 (MCF7 [1]): 39 nM
- IC50 (MDA-MB-231 [12]): 49000 nM
Compound: O=C1Nc2c(C(F)(F)F)cccc2[C@@]1(c1ccc(O)cc1)N1CCCC(F)(F)C1
- Ratio IC50 [9]: 800
- Ratio IC50 [10]: 700
- Ratio IC50 [11]: 600

- IC50 (MCF7 [1]): 33 nM
Compound: O=C1Nc2c(C(F)(F)F)cccc2C1(c1ccc(OC(F)(F)F)cc1)c1ccc(O)c(F)c1 (stereo not drawn)
